Data set [1] concerns spontaneously hypertensive rats. In words: Blood pressure-lowering activity, tail-cuff method. It counts as in vivo. Conditions: maximum lowering effect on systolic blood pressure. Here is the method:
The activity of the formula(I) compounds of the present invention was tested by employing the tail-cuff method described in references [see, e.g., I. M. Claxton, M. G. Palfreyman, R. H. Poyster and R. L. Whiting, European Journal of Pharmacology 37, 179(1976)] . After administration of the test compound of formula(I) to sets of spontaneously hypertensive rats, maximum blood pressure-lowering activity was determined by measuring the lowering effect on systolic blood pressure.

In data set [2] the test system is Guinea pig trachea muscle. In words: Relaxation activity on respiratory smooth muscle contracted with histamine. It counts as cell-based. To be noted: Cavia porcellus, concentration relaxing 50% of the contraction, read-out: Trachea Relaxation Activity, EC₅₀. On the procedure: Further, the relaxation activity on respiratory smooth muscle was determined as follows: Guinea pig trachea muscle was made to be contracted with histamine; and then the test compound of the present invention was administered thereto; and the concentration of the test compound which was required in relaxing 50% level of the contraction was determined and designated as EC₅₀.

A short description of data set [3]: Toxicity test, oral administration, deaths over 48 hours. To be noted: rat, in vivo, rats, orally administered; for mortality at 48 h: deaths over 48 hours, read-out: Lethal Rate(%); for LD50 at 48 h: amount of test compound which causes a 50% lethal rate, read-out: LD₅₀. Here is the method: Six pairs(each pair consisting of a male and a female) of the rats were used in the test. The number of the rats which died over a period of 48 hours was reported.

Results on seven compounds are retold here after patent EP0514935B1, “Novel benzopyran derivatives and processes for the preparation thereof” (KOREA RESEARCH INSTITUTE OF CHEMICAL TECHNOLOGY, priority 1991, dated 1992).

The structures appear in SMILES notation. Like-named read-outs stand apart in the source and are kept apart here. A value given as a limit tells only on which side of the number the result lay.

Turning to `COC(OC)C1(C)C=C(N2CCCC2=O)c2cc(C#N)ccc2O1` (racemic) [Example 1, 2-dimethoxymethyl-2-methyl-4-(2' -oxo-1' -pyrrolidinyl)-6-cyano-2H-1-benzopyran], the “Blood Pressure-Lowering Activity” value is given as 24% in data set [1] (Dose 0.3 mg/kg) and 43% in data set [1] (Dose 1.0 mg/kg). In addition, the EC50 in data set [2] amounted to 150 µM. In addition, the mortality at 48 h in data set [3] (Dose 10 mg/kg) was determined as 0%; in data set [3] (Dose 20 mg/kg), 8%; in data set [3] (Dose 50 mg/kg) it was 25%. The LD50 at 48 h in data set [3] is over 50 mg/kg.

Turning to `COC(OC)C1(C)C=C(N2CCCC2=O)c2cc(C#N)ccc2O1` (single isomer, unassigned) [16(-), 2-dimethoxymethyl-2-methyl-4-(2' -oxo-1' -pyrrolidinyl)-6-cyano-2H-1-benzopyran], the “Blood Pressure-Lowering Activity” value was determined as 28% in data set [1] (Dose 0.3 mg/kg) and 55% in data set [1] (Dose 1.0 mg/kg). For the same compound, the EC50 in data set [2] amounted to 140 µM.

Consider `COC(OC)C1(C)C=C(N2CCCC2=O)c2cc(S(=O)(=O)c3ccccc3)ccc2O1` (racemic) [Example 3, 2-dimethoxymethyl-2-methyl-4-(2' -oxo-1' -pyrrolidinyl)-6-phenylsulfonyl-2H-1-benzopyran], for which the “Blood Pressure-Lowering Activity” value in data set [1] (Dose 0.1 mg/kg) came out at 6.9%. Also, the EC50 in data set [2] amounted to 10.9 µM.

On to `CC1(C2OCCCO2)C=C(N2CCCC2=O)c2cc([N+](=O)[O-])ccc2O1` (racemic) [Example 11, 2-(2'' -(1'' ,3'' -dioxane))-2-methyl-4-(2' -oxo-1' -pyrrolidinyl)-6-nitro-2H-1-benzopyran], for which the “Blood Pressure-Lowering Activity” value in data set [1] (Dose 0.1 mg/kg) was 48%. Further, the EC50 in data set [2] was found to be 50 µM. For the same compound, the mortality at 48 h was 0% in data set [3] (Dose 10 mg/kg), 35% in data set [3] (Dose 20 mg/kg) and 35% in data set [3] (Dose 50 mg/kg). In data set [3], the LD50 at 48 h was over 50 mg/kg.

Regarding `CC1(C2OCCO2)C=C(N2CCCC2=O)c2cc(C#N)ccc2O1` (racemic) [Example 7, 2-(2'' -(1'' ,3'' -dioxolane))-2-methyl-4-(2' -oxo-1' -pyrrolidinyl)-6-cyano-2H-1-benzopyran], the “Blood Pressure-Lowering Activity” value in data set [1] (Dose 1.0 mg/kg) is recorded as 41%. In addition, the EC50 in data set [2] amounted to 50 µM.

Regarding `CC1(C)Oc2ccc(C#N)cc2C(N2CCCC2=O)C1O` (stereo not drawn) [Cromakalim(-), Cromakalim, reference compound], in data set [1] (Dose 0.3 mg/kg), the “Blood Pressure-Lowering Activity” value is listed as 39%. Moreover, the EC50 in data set [2] amounted to 2.7 µM.

On to `CC1(C2OCCO2)C=C(N2CCCC2=O)c2cc(OC(F)(F)F)ccc2O1` (racemic) [Example 9, 2-(2'' -(1'' ,3'' -dioxolane))-2-methyl-4-(2' -oxo-1' -pyrrolidinyl)-6-trifluoromethoxy-2H-1-benzopyran], for which the “Blood Pressure-Lowering Activity” value in data set [1] (Dose 0.1 mg/kg) is 20.6%. For the same compound, the EC50 in data set [2] stood at 17.1 µM.
